Assay results published in patent US6346252B1, “Method of obtaining an antibacterial and/or antifungal extract from the algae, bonnemaisoniacea” (Algues et Mer (S.A.R.L.), priority 1996, dated 2002).

Test system: Pseudomonas aeruginosa strain
Experiment: embedding of 1 ml and 0.1 ml samples of mother solution in PCA medium
Type: cell-based
Conditions: for bacteria count in embedding: PCA medium 48 hours, strain at 1.9 10^8, bromoform 60 mg/l
Experimental: In order to test that the antibacterial and/or antifungal action is in fact related to a group of halogenated molecules of low molecular weight, an aqueous solution of 60 mg/l bromoform was prepared and its action compared with that of a permeate of nanofiltration at the threshold of 400 Daltons which therefore only contained micromolecules, in particular halogenated molecules. After embedding 1 ml and 0.1 ml samples in a PCA medium for 48 hours from a mother solution containing the product to be tested and the Pseudomonas aeruginosa strain at a concentration of 1.9 10^8, the results in the following table were obtained.
In this table, and in the following tables, “>>” means that bacteria developed and could not be counted.
Also, the microfiltration permeate was fractionated by subjecting it to ultrafiltration (uF) or nanofiltration (nF), and the antibacterial action on the Pseudomonas strain was measured for each fraction and at different times in accordance with the protocol described below. The following results were obtained:
Other tests were conducted to measure the influence of pH on the extract's activity and its ageing. Acidification was carried out during the so-called acidification stage of the method for obtaining the extract of the invention, using citric acid.

SMILES: BrC(Br)Br [Bromoform, bromoform]
- bacteria count in embedding (0.1 ml embedding): >>
- bacteria count in embedding (1 ml embedding): >>
- action against the Pseudomonas aeruginosa strain (bromoform at 1.5 times the concentration in the extract, permeate on second day after production): no action
